Data set [1] can be described thus: in vitro. The following applies: for Mean Transnasal Flux: diazepam, 37° C., n = 2. From the text:
The nasal mucous membrane used in these in vitro experiments was obtained from New Zealand White rabbits (2.5-3.0 kg). Rabbits were sacrificed by IV injection of phenobarbital. The nasal septum was carefully removed from a bone block using surgical scissors and a bone-cutting saw. Two pieces of nasal mucous membranes were then carefully stripped from the nasal septum without touching the center of the membrane surface and rinsed with normal saline solution. The mucosal membrane was mounted between two half-cells of a glass diffusion cell apparatus. The exposed area of the nasal membrane was approximately 0.64 cm^2. A test solution or suspension (3.5 ml) was introduced into the mucosal side of the membrane in the donor compartment while 3.5 ml of 10% ethanol, 40% propylene glycol, and 50% pH 7.4 isotonic phosphate buffer solution was added to the receptor compartment. The entire diffusion system was maintained at 37° C. throughout the experiment. At predetermined time intervals, 100 μl of the receptor solution was withdrawn for the assay and refilled with the same volume of fresh receptor medium to keep the volume constant. The steady-state flux value was determined from the slope of the straight line attained from the plot of the cumulative amount of drug permeated as a function of time. Each experiment was carried out in at least duplicate.
A high pressure liquid chromatographic system equipped with a multi-solvent delivery system (Model 600E, Waters Associates, Milford, Mass.), an auto-injector (Model 717 Plus, Waters Ass.), a photodiode array detector (Model 996, Waters Ass.), a reverse phase Symmetric C18 column (150 mm ×3.9 mm ID, 5 μm), and a Millenium 2010 software computer system was used in this study.
In these studies, a series of bile salts such as sodium cholate, sodium deoxycholate, sodium taurocholate, and sodium glycocholate, and a lecithin such as lysophosphatidylcholine were examined. The permeation rates were measured using the method described under the in vitro membrane permeation test method.
The permeation rates were determined utilizing the method described in Example 1.
The in vitro membrane permeation rates were measured using the test method described in Example 1.
Sample drug solutions (10 mg/ml) were prepared with the vehicle with and without the bile salt. The membrane permeation rates were measured in the use of the test method described in Example 1.
The in vitro permeation experiments were performed using the test method described in Example 1.

The nature of data set [2]: Bioavailability and pharmacokinetics of (S)-2-carbamoyloxyl-1-o-chlorophenylethanol preparations after IV and IN administration. Format: in vivo. The conditions noted are these: rabbits. As to the method:
A formulation for IV injection was prepared by dissolving 15 mg (S)-2-carbamoyloxyl-1-o-chlorophenylethanol in 1 mL of 40% PEG 400 and 60% water and filtering through a sterile membrane filter under aseptic conditions. The formulations were administered to rabbits (n=2-4) at the two dosing levels of 2.5 mg/kg and 5 mg/kg in a manner analogous to that described in Example 7. A repeated dosing regimen at 5 minute intervals was also studied in the nasal application of the preparation of the invention. […] To the plasma sample, 50 μl of an internal standard solution (2-(2,6-dichlorophenyl)-2-carbamoyloxyethyl)oxocarboxamide-10 μg/ml) and 5 ml of methyl-butyl ether were added. The mixture was vortexed for 60 seconds and centrifuged at 3500 rpm for 10 minutes. […] The residue was reconstituted with 200 μl of deionized water. The (S)-2-carbamoyloxyl-1-o-chlorophenylethanol concentration in the plasma was determined by HPLC in the use of a mobile phase consisting of 20% acetonitrile and 80% water with a flow rate of 1 ml/minute and UV detection at 210 nm. The detection limit for (S)-2-carbamoyloxyl-1-o-chlorophenylethanol was 23 nmol/l. The pharmacokinetic parameters determined after IV and IN administration of (S)-2-carbamoyloxyl-1-o-chlorophenylethanol at two dose strengths are presented in Table VIII. […]

Data set [3] is described as follows: Bioavailability and pharmacokinetics of clonazepam preparations after IV and IN administration. The conditions noted are these: rabbits.
Description: The formulations were administered to rabbits (n=3) at a dose of 0.2 mg/kg in a manner analogous to those described in Example 7. A repeated dosing regimen (double and triple applications) at 5 minutes time intervals was also tested. Blood samples were obtained from the ear vein at the following time intervals: 0, 2, 5, 10, 20, 30, 45, 60, and 120 minutes. From the blood samples, plasma was separated by centrifugation and stored at −20° C. until analysis. For analysis, plasma samples (0.5 ml) were accurately transferred into a 15-ml test tube. […] To the above mixture, 5 ml of diethyl ether was added and this mixture was vortexed for 60 seconds and centrifuged at 4000 rpm for 10 minutes. The upper ethereal solution was transferred to a 5 ml test tube and evaporated in a vacuum evaporator at 40° C. for 30 minutes. The residue was reconstituted with 100 μl of the mobile phase for HPLC analysis consisting of 20% methanol, 30% acetonitrile, and a 50% pH 3.5 KH2PO4/H3PO4 buffer/solution. The clonazepam concentration in the plasma was determined by HPLC using a flow rate of 1 ml/minute and the UV detection at 254 nm. The detection limit for clonazepam was 16 nmol/l.
For data set [4] the following is noted: dogs, after the nasal administration; cited from earlier work.
The mark [5] stands for this setting: vehicle 30% ethanol, 60% propylene glycol, 10% water, initial drug concentration 5mg/ml.

With `NC(=O)OC[C@@H](O)c1ccccc1Cl` [(S)-2-carbamoyloxyl-1-o-chlorophenylethanol], the Papp (as a rule, a coefficient for how fast a substance crosses the barrier) at 5 mg/ml in data set [1] (New Zealand White, rabbit) is 27.1 ×10⁻⁶ cm/s. In addition, in data set [1] (New Zealand White, rabbit, 5 mg/ml), the “Transnasal Flux” value came to 487.6 μg/cm^2/hr. Besides, the “time at which plasma concentration after the second dosing exceeded the plasma level of a single IV injection” value in data set [2] (IN 5 mg/kg × 2 vs IV 5 mg/kg) came to 30 min. Moreover, in data set [2] (second IN application 5 minutes after the first dosing, 5 mg/kg × 2), the “Cmax and AUC0-240 minutes after the second intranasal application” value is “doubled”.

Compound `O=C1CN=C(c2ccccc2Cl)c2cc([N+](=O)[O-])ccc2N1` [Clonazepam, clonazepam] gave a Papp at 5 mg/ml in data set [1] (New Zealand White, rabbit) of 19.3 ×10⁻⁶ cm/s. Besides, in data set [1] (setting [5]), the “Transnasal Flux” value worked out at 347.7 μg/cm^2/hr. Also, the “time to initial peak plasma concentration” value in data set [3] (after the first intranasal application) is no more than 2 min. In data set [3] (first intranasal application 0.2 mg/kg), the “peak plasma level relative to the IV injection” value is reported as “about 32%”. In addition, the “peak plasma concentration after the third application compared with the single IV injection” value in data set [3] (third IN application at 5 minutes intervals, peak observed at 15 minutes) is recorded as “nearly identical”.

`CN1C(=O)CN=C(c2ccccc2)c2cc(Cl)ccc21` [Diazepam, diazepam]: in data set [1] (10 mg/ml diazepam in 30% ethanol, 60% propylene glycol, 10% water with vs without 1% SGC (FIG. 3)), the “increase in the steady-state flux when 1% sodium glycocholate is incorporated into the vehicle” value is recorded as “approximately 50%”. The “Mean Transnasal Flux” value in data set [1] (vehicle 1% Lysophosphotidylcholine/H2O) is listed as 125.5 μg/cm^2/hr; in data set [1] (vehicle 1% Sodium Cholate/H2O) it was 66.3 μg/cm^2/hr; in data set [1] (vehicle 1% Sodium Deoxycholate/H2O), 74.9 μg/cm^2/hr; in data set [1] (vehicle 1% Sodium Glycocholate/H2O), 96.4 μg/cm^2/hr; in data set [1] (vehicle 1% Sodium Taurocholate/H2O) it was 87.0 μg/cm^2/hr; in data set [1] (vehicle Water), 79.5 μg/cm^2/hr. The “Transnasal Flux” value in data set [1] (setting [5]) is 246.0 μg/cm^2/hr.

Consider `Cc1nnc2n1-c1ccc(Cl)cc1C(c1ccccc1Cl)=NC2` [triazolam], for which the “time to maximum plasma concentration” value in data set [4] is 18 min.

The values above are taken from patent publication US6627211B1, “Transnasal anticonvulsive compositions and modulated process” (SK Corporation, priority 1999, dated 2003).
